Measurements taken from ChEMBL document CHEMBL4765362, “Thirty Years of HDAC Inhibitors: 2020 Insight and Hindsight” (J Med Chem, 2020).

Tests used:
[1] = target: Histone deacetylase 2 (Homo sapiens, UniProt Q92769); assay: Inhibition of HDAC2 (unknown origin)
[2] = target: Histone deacetylase 3 (Homo sapiens, UniProt O15379); assay: Inhibition of HDAC3 (unknown origin)
[3] = target: Histone deacetylase 1 (Homo sapiens, UniProt Q13547); assay: Inhibition of human full length C-terminal Flag tagged HDAC1 expressed in HEK293T cells using H3K9-myristoyl peptide as substrate by HPLC method
[4] = target: Histone deacetylase 5 (Homo sapiens, UniProt Q9UQL6); assay: Inhibition of HDAC5 (unknown origin)
[5] = target: T1, Protein deacetylase HDAC6 (Homo sapiens, UniProt Q9UBN7); assay: Inhibition of HDAC6 (unknown origin)
T1 sequence (Q9UBN7 whole entry): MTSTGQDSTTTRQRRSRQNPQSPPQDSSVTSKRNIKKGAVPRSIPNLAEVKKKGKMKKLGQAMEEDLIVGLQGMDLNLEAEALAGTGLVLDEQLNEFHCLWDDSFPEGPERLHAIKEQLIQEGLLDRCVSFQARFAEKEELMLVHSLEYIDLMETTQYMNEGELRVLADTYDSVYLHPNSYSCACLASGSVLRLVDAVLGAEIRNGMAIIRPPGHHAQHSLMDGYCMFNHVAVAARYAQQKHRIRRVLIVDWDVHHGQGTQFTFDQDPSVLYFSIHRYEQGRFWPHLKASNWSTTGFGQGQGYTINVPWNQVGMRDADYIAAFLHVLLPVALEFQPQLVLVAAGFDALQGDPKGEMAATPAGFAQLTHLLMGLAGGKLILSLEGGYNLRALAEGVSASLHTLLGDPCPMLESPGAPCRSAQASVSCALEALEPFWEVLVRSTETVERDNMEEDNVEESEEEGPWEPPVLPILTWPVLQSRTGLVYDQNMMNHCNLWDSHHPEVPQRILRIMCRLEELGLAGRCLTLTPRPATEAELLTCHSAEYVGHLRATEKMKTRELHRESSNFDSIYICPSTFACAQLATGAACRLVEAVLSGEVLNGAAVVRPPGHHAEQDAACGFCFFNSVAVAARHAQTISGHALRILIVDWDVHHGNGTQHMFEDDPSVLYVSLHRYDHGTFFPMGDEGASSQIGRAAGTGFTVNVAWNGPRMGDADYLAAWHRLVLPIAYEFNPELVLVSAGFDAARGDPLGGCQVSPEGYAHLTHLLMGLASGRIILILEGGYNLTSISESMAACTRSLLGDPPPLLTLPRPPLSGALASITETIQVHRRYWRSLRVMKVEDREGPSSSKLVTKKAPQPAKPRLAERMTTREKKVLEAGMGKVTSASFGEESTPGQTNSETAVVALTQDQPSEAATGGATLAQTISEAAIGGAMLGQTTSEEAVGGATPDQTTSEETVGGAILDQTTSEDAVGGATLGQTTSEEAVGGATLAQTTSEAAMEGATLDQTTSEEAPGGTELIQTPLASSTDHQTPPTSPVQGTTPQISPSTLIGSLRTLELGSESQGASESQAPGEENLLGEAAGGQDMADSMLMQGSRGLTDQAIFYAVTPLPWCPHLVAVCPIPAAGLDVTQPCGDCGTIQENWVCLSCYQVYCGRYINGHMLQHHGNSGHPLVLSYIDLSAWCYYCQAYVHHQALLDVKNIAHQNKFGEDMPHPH

[6] = target: T2, Histone deacetylase 7 (Homo sapiens, UniProt Q8WUI4); assay: Inhibition of HDAC7 (unknown origin)
T2 sequence (Q8WUI4 whole entry): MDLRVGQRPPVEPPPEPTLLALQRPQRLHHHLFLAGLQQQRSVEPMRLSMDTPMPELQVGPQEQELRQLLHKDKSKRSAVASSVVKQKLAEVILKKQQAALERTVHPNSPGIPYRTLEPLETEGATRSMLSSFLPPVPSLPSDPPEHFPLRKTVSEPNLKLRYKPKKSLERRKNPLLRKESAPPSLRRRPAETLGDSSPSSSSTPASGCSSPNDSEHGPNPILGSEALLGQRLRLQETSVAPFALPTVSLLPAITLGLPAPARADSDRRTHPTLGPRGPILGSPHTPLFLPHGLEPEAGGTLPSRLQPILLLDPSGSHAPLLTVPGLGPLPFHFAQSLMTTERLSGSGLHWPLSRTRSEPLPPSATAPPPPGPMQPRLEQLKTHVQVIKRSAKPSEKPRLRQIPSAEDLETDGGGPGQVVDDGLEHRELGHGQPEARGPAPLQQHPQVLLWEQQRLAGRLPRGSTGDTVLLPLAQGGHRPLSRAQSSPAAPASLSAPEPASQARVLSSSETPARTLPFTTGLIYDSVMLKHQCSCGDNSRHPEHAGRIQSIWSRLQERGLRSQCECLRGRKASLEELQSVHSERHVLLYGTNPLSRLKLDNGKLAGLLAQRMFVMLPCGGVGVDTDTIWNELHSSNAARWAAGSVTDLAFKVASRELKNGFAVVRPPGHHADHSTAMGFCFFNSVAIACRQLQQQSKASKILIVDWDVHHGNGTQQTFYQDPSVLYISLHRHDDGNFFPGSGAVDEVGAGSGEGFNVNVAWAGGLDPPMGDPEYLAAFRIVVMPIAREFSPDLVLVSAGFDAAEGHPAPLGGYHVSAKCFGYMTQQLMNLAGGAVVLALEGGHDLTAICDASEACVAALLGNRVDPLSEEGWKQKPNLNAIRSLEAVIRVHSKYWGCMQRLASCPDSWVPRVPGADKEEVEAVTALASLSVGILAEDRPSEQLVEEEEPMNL

[7] = target: T3, Histone deacetylase 8 (Homo sapiens, UniProt Q9BY41); assay: Inhibition of HDAC8 (unknown origin)
T3 sequence (Q9BY41 whole entry): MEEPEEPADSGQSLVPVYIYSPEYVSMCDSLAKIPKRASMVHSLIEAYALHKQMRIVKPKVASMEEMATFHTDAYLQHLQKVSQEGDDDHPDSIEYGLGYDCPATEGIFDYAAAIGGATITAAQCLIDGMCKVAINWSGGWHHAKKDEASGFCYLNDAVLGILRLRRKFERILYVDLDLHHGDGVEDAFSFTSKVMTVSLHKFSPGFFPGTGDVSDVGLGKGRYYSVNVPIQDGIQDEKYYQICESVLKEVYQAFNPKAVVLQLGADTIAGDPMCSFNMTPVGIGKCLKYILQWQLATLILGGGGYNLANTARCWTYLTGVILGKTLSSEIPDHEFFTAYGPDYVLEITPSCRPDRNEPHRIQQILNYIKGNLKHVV

[8] = target: Histone deacetylase 9 (Homo sapiens, UniProt Q9UKV0); assay: Inhibition of HDAC9 (unknown origin)
[9] = target: T3, Histone deacetylase 8; assay: Inhibition of HDAC8 (unknown origin) using p53 (379 to 382 residues)(RHK(Ac)K(ac)AMC) as substrate by fluorescent method
[10] = target: T2, Histone deacetylase 7; assay: Inhibition of HDAC7 (unknown origin) using HDAC class IIa substrate (trifluoroacetyl-lysine-AMC) as substrate by fluorescent method
[11] = target: T1, Protein deacetylase HDAC6; assay: Inhibition of HDAC6 (unknown origin) using p53 residues (379 to 382)(RHKK(Ac)-AMC) as substrate by fluorescent method

Sequence of Histone deacetylase 3 (O15379 whole entry): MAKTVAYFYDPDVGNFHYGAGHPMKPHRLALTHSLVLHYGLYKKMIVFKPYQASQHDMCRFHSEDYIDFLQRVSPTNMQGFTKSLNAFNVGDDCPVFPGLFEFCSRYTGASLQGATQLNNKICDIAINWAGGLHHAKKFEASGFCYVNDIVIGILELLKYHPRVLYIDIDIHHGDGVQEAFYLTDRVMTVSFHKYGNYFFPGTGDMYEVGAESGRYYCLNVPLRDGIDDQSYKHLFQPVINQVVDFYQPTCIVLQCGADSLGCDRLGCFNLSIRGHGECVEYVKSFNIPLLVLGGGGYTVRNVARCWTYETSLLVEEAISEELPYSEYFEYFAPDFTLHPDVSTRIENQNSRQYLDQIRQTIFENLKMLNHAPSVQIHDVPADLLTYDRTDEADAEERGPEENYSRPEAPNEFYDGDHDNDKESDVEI
Sequence of Histone deacetylase 2 (Q92769 whole entry): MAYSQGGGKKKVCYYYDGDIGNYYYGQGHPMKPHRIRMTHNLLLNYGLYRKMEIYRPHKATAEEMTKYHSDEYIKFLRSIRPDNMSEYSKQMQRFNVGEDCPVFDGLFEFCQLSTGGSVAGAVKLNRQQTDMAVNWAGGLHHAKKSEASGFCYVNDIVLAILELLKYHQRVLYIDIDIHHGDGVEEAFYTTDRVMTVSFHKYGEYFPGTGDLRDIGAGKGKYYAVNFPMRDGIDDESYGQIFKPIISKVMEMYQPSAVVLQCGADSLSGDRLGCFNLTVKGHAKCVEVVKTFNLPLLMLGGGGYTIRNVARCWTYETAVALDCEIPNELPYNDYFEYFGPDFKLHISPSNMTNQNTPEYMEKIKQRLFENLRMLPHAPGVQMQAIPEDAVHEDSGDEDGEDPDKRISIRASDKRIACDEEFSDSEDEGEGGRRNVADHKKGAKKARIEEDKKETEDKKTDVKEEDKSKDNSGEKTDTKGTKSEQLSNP
Sequence of Histone deacetylase 5 (Q9UQL6 whole entry): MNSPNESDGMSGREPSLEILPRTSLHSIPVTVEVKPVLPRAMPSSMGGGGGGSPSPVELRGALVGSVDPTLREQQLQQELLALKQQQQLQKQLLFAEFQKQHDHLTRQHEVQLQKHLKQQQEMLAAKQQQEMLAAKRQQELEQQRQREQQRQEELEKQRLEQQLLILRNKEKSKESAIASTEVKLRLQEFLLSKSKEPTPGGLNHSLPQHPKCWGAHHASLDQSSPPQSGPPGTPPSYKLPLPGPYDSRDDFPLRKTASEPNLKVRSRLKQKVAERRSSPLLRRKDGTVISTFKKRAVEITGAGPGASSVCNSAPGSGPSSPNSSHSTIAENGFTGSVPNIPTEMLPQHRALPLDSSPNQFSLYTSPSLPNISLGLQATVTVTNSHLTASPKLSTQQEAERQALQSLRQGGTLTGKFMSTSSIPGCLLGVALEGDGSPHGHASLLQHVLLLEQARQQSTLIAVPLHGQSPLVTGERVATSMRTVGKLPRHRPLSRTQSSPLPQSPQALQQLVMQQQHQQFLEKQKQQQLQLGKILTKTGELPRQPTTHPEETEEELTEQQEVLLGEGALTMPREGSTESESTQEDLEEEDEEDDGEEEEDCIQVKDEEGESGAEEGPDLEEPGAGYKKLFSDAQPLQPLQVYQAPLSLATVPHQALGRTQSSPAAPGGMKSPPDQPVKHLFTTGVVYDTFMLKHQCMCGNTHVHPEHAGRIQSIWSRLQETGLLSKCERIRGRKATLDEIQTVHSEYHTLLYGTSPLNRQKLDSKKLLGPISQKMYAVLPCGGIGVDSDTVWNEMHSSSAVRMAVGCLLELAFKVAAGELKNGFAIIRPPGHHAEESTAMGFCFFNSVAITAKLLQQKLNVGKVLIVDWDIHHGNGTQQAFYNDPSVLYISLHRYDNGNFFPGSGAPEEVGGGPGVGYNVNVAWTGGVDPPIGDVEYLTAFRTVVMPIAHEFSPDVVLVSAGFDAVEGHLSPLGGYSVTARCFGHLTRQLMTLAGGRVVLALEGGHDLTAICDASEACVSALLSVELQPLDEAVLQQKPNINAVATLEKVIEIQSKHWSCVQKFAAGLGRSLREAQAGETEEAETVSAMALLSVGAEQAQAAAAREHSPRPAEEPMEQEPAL
Sequence of Histone deacetylase 1 (Q13547 whole entry): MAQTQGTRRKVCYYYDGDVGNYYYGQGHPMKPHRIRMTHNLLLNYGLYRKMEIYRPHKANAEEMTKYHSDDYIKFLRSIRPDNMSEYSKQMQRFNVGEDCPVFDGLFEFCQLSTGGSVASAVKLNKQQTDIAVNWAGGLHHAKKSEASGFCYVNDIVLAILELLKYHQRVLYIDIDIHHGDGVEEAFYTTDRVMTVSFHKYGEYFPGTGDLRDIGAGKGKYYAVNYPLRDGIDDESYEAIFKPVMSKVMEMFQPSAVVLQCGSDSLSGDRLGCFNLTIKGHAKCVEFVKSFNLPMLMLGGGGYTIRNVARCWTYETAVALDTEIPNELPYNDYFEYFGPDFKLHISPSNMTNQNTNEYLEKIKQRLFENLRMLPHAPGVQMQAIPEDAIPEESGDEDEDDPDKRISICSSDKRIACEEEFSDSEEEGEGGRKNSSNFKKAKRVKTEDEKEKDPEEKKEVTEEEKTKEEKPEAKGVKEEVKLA
Sequence of Histone deacetylase 9 (Q9UKV0 whole entry, the tested form may be a part): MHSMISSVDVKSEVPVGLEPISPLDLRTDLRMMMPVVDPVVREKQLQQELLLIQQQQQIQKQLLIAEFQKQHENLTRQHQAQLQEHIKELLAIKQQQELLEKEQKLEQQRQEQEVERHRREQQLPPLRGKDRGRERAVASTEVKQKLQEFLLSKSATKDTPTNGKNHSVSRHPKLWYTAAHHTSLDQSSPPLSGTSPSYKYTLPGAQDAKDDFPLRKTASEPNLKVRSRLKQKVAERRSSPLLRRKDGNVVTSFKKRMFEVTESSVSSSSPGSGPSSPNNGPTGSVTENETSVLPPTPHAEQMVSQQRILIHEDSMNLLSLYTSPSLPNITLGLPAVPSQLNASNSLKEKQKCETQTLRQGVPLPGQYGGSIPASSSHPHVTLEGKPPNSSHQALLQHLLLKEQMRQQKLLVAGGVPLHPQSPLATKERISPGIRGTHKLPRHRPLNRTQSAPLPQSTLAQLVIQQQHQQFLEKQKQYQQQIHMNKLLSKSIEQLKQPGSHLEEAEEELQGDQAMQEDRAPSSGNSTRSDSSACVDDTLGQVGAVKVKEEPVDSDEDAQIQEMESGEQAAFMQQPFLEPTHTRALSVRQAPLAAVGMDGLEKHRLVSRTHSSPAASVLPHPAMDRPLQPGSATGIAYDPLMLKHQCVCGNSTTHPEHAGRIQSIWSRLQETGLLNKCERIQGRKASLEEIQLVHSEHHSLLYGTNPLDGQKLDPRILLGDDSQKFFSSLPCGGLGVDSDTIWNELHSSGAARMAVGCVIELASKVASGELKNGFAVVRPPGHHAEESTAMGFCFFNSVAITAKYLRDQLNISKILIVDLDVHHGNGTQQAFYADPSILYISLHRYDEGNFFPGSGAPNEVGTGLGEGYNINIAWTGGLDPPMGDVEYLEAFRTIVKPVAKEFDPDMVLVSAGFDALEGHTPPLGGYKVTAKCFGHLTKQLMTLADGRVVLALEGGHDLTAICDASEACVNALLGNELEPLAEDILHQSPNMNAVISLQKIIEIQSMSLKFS

Structure (SMILES) | IC50 [1] [µM] | IC50 [2] [µM] | IC50 [3] [µM] | IC50 [4] [µM] | IC50 [5] [µM] | IC50 [6] [µM] | IC50 [7] [µM] | IC50 [8] [µM] | IC50 [9] [µM] | IC50 [10] [µM] | IC50 [11] [µM]
CCCCCCCCCCCCCCCCNNC(=O)c1cccs1 | > 10 | > 10 | > 10 | > 10 | > 10 | > 10 | 6 | > 10 |  |  | 
Cn1cc(-c2ccc(S(=O)(=O)n3ccc(/C=C/C(=O)Nc4ccccc4N)c3)cc2)cn1 [DOMATINOSTAT] |  |  |  |  |  |  |  |  | > 10 | > 10 | > 10
